The results in this text go back to patent publication US7902260B2, “Medicament for preventive and/or therapeutic treatment of lower urinary tract symptom” (Kemphys Ltd., priority 2007, dated 2011).

The experiment concerns Rat Hydrochloric Acid-induced Cystitis Model. The experiment in a line: Evaluation in a rat hydrochloric acid-induced cystitis model (cystometry). In kind it is in vivo. How it is done: On day 1, Crlj:CD(SD) male rats at 8 weeks of age were anesthetized by 2% isofurane inhalation and the abdomen of the rats were opened. After cannula was inserted into the bladder and fixed, the incision was closed with suture. On day 2, 0.2 N hydrochloric acid was injected into the bladder through cannula for 15 min to induce cystitis. On day 3, the first oral administration of a drug was performed. Since then, the drug was administrated once a day continuously for 7 days. As a retinoid drug, 3 mg/kg tamibarotene (Am80, 4-[(5,6,7,8-tetrahydro-5,5,8,8-tetramethyl-2-naphthalenyl)-carbamoyl] benzoic acid) suspended in 0.5% carboxymethylcellulose was orally administered. For the control group, 0.5% carboxymethylcellulose was orally administered. On day 10, bladder function under unanesthetized and unrestrained state was evaluated by cystometry. Via a three-way stopcock, warm saline (37° C.) was infused into the tube which was inserted into the bladder. At the other end of a three-way stopcock, bladder pressure was measured for 60 min by a pressure amplifier through a pressure transducer. At the same time, the weight change of excreted urine was measured using a balance. From these measured data, basal bladder pressure, maximum bladder pressure, micturition interval, and micturition volume were calculated. 5 rats were used in each group, control and tamibarotene group.
Values were indicated as average ±standard error. The difference between averages of control group and tamibarotene group was evaluated by Student's t-test (***p<0.001 compared with control).

[1] abbreviates: 3 mg/kg oral once a day for 7 days, cystometry on day 10, unanesthetized unrestrained rats, average ± standard error.

Under setting [1], `CC1(C)CCC(C)(C)c2cc(NC(=O)c3ccc(C(=O)O)cc3)ccc21` [Tamibarotene, 4-[(5,6,7,8-tetrahydro-5,5,8,8-tetramethyl-2-naphthalenyl)-carbamoyl] benzoic acid] came in with a Basal bladder pressure of 15.1 ± 2.8 mmHg and a Maximum bladder pressure of 36.6 ± 6.0 mmHg. This compound also yielded a Micturition volume (3 mg/kg oral once a day for 7 days, cystometry on day 10, average ± standard error) of 0.61 ± 0.24 g. Further, the Micturition interval (3 mg/kg oral once a day for 7 days, cystometry on day 10, average ± standard error, ***p<0.001 compared with control) is 884 ± 113*** second. Moreover, the “Micturition interval compared to control group (in words)” value (3 mg/kg tamibarotene-administered group vs control, Student's t-test) was “significantly improved”.
